Experimental data: ChEMBL document CHEMBL3751805, “Novel Tacrine-Benzofuran Hybrids as Potent Multitarget-Directed Ligands for the Treatment of Alzheimer's Disease: Design, Synthesis, Biological Evaluation, and X-ray Crystallography” (J Med Chem, 2016)
Values belong to the molecule of their own block, whether it stands above or below them. Active and inactive are the calls of the source. The rule behind the calls is not given here.

What was measured:
[1] = molecular target: T1, Amyloid-beta precursor protein (Homo sapiens, UniProt P05067); details: at 10 µM
T1 sequence (P05067 whole entry): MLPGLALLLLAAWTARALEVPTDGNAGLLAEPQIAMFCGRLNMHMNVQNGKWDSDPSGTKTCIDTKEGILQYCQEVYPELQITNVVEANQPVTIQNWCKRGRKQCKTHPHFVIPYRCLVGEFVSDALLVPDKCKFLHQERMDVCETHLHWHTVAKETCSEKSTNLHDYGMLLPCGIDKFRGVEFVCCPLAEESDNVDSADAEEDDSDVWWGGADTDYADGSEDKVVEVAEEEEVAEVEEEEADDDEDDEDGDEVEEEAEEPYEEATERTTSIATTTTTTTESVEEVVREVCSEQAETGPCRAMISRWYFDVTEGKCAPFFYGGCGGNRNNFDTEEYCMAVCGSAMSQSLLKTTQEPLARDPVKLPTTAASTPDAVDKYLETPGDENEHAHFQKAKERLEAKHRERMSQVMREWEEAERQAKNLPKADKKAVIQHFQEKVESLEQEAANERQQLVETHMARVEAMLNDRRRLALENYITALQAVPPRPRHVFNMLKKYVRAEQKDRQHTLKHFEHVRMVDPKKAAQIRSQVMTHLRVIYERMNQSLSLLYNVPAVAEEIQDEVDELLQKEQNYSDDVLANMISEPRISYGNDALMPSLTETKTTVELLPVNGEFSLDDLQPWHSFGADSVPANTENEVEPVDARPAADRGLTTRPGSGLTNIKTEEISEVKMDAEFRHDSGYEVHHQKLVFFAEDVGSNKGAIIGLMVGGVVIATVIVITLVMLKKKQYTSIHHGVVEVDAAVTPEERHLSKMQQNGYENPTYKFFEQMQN
Description: Inhibition of HFIP pretreated Amyloid beta (1 to 42) (unknown origin) self-induced aggregation at 10 uM incubated for 24 hrs by Thioflavin T-based fluorometric assay

[2] = molecular target: Cholinesterase (Homo sapiens, UniProt P06276)
Chain of Cholinesterase (P06276 whole entry): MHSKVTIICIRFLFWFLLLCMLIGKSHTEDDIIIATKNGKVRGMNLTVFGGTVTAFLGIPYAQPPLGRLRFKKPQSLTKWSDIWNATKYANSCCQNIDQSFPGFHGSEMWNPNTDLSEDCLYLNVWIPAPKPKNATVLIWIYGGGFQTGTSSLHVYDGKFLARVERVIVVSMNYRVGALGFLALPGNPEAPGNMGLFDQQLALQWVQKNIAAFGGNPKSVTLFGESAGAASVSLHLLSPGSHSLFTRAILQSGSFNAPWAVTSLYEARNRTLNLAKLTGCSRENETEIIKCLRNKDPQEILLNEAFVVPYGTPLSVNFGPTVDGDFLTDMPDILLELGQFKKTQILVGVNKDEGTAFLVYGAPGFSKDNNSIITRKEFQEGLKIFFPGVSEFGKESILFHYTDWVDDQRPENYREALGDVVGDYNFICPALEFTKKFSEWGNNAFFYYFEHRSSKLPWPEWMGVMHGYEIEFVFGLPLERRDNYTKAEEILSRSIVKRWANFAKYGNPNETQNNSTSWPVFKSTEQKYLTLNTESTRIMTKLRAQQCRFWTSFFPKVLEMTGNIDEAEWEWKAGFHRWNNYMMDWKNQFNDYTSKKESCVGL
Description: Inhibition of human serum BChE using butyrylthiocholine iodide as substrate preincubated for 20 mins followed by substrate addition by Ellman's method

[3] = molecular target: T2, Acetylcholinesterase (Homo sapiens, UniProt P22303)
T2 sequence (P22303 whole entry): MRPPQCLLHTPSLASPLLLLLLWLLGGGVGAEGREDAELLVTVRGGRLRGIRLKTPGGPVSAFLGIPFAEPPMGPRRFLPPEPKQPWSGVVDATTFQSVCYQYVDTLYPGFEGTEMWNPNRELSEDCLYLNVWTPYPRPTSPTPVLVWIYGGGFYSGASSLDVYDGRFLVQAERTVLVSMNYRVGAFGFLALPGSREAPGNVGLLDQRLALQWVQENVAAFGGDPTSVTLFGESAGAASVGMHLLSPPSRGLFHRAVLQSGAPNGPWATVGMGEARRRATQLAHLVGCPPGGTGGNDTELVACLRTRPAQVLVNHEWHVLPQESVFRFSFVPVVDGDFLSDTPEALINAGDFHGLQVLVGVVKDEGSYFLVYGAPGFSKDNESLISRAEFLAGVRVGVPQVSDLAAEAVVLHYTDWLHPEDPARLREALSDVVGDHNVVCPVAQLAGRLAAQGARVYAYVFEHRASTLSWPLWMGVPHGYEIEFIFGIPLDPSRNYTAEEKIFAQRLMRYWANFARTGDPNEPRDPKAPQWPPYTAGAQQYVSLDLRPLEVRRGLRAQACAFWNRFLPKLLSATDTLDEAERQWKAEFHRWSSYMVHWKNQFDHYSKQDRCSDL
Description: Inhibition of recombinant human AChE using acetylthiocholine iodide as substrate preincubated for 20 mins followed by substrate addition by Ellman's method

[4] = test system: SH-SY5Y; assay: Cytotoxicity against human SH-SY5Y cells assessed as reduction in cell viability at 3 to 30 uM after 48 hrs by MTT assay; assay type: cell-based
[5] = molecular target: T1, Amyloid-beta precursor protein; assay: Inhibition of Amyloid beta (1 to 42) (unknown origin) self-induced aggregation incubated for 24 hrs by Thioflavin T-based fluorometric assay
[6] = molecular target: T3, Beta-secretase 1 (Homo sapiens, UniProt P56817); assay: Inhibition of BACE-1 (unknown origin) using M-2420 as substrate preincubated for 1 hr followed by substrate addition measured after 15 mins by FRET assay
T3 sequence (P56817 whole entry): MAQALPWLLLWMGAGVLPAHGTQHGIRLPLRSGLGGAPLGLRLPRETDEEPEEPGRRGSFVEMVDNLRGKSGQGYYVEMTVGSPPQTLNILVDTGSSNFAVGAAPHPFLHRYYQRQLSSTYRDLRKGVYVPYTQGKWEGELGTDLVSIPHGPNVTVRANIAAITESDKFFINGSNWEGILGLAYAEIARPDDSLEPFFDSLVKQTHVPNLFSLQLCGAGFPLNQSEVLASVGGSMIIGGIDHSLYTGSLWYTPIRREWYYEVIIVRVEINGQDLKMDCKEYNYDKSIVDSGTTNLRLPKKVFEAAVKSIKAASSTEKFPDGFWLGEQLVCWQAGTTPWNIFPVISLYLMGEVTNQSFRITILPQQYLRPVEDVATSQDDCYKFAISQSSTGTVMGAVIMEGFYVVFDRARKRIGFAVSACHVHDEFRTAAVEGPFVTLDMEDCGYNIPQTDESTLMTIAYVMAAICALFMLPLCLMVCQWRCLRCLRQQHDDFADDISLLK

[7] = molecular target: T3, Beta-secretase 1
Description: Inhibition of recombinant human BACE-1 using M-2420 as substrate preincubated for 1 hr followed by substrate addition measured after 15 mins by FRET assay

[8] = in vitro; details: human, SH-SY5Y cells
Description: Cytotoxicity against human SH-SY5Y cells assessed as cell viability at 30 uM after 48 hrs by MTT assay

[9] = test system: Mus musculus; assay: Hepatotoxicity in ICR mouse assessed as elevation in serum alanine aminotransferase level dosed ig at equimolar dose of 30 mg/kg tacrine after 8 hrs by spectrophotometry analysis relative to control; assay type: toxicity, organism-based; details: in vivo, po
[10] = test system: Mus musculus; assay type: toxicity, organism-based, ICR; details: in vivo, po, 30 mg/kg, 8 h
[11] = test system: Mus musculus; assay: Hepatotoxicity in ICR mouse assessed as serum aspartate aminotransferase level dosed ig at equimolar dose of 30 mg/kg tacrine after 22 hrs by spectrophotometry analysis (reference value: […] +/- 31.1 U/L); assay type: toxicity, organism-based; details: in vivo, po
[12] = test system: Mus musculus; assay: Hepatotoxicity in ICR mouse assessed as serum aspartate aminotransferase level dosed ig at equimolar dose of 30 mg/kg tacrine after 8 hrs by spectrophotometry analysis (reference value: 113.3 +/- 30 U/L); assay type: toxicity, organism-based; details: in vivo, po
[13] = molecular target: Acetylcholinesterase (Torpedo californica) (UniProt P04058); details: Tetronarce californica; 1 to 10 nM
Chain of Acetylcholinesterase (Torpedo californica) (P04058 22-564 limits assumed): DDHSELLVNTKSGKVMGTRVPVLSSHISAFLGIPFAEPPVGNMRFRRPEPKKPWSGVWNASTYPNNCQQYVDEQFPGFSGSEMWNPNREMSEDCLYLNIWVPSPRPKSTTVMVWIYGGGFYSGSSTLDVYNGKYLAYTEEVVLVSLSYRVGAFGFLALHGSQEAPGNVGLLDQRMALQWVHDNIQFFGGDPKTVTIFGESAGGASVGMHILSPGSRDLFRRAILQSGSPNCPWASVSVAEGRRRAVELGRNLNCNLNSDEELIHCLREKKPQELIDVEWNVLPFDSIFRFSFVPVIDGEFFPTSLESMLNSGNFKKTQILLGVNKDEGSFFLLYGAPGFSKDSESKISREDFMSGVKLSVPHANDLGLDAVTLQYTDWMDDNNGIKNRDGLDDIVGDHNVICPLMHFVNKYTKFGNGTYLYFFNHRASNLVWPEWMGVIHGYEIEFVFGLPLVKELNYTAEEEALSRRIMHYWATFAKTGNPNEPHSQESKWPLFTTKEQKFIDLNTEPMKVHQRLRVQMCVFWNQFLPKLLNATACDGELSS

[14] = molecular target: Acetylcholinesterase (Torpedo californica) (UniProt P04058); details: Tetronarce californica
Description: Competitive inhibition of Torpedo californica AChE using ATCh as substrate assessed as second order association constant preincubated for 90 mins followed by substrate addition by potentiometric titration method

[15] = molecular target: Acetylcholinesterase (Torpedo californica) (UniProt P04058); details: Tetronarce californica; 0.3 nM
[16] = molecular target: T2, Acetylcholinesterase; assay: Mixed-type inhibition of recombinant human AChE using acetylthiocholine iodide as substrate assessed as enzyme-substrate-inhibitor complex by Lineweaver-Burk double reciprocal plot method
[17] = molecular target: T2, Acetylcholinesterase; assay: Mixed-type inhibition of recombinant human AChE using acetylthiocholine iodide as substrate assessed as enzyme-inhibitor complex by Lineweaver-Burk double reciprocal plot method
[18] = molecular target: T4, Acetylcholinesterase (Torpedo californica, UniProt P04058); assay: Noncompetitive inhibition of Torpedo californica AChE using ATCh as substrate preincubated for 90 mins followed by substrate addition by potentiometric titration method; set-up: species or system Tetronarce californica
T4 sequence (P04058 whole entry): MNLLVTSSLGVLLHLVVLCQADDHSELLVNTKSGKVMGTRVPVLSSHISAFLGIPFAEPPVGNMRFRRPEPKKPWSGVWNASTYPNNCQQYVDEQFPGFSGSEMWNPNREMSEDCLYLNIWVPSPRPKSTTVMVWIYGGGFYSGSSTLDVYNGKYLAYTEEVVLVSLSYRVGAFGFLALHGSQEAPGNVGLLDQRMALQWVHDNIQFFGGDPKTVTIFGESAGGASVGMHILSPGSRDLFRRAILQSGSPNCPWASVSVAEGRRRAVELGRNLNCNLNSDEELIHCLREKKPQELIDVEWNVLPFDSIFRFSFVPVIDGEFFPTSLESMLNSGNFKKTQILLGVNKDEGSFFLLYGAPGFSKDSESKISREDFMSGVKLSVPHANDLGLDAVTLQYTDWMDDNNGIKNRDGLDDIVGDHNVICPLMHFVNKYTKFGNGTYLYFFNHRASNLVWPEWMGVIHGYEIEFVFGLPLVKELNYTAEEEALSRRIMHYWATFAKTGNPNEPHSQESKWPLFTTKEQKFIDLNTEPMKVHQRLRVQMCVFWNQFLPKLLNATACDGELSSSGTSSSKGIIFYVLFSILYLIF

[19] = molecular target: Acetylcholinesterase (Torpedo californica) (UniProt P04058); details: Tetronarce californica; remark: listed apart in the source
Description: Noncompetitive inhibition of Torpedo californica AChE using ATCh as substrate assessed as second order association constant preincubated for 90 mins followed by substrate addition by potentiometric titration method

[20] = molecular target: T4, Acetylcholinesterase; assay: Noncompetitive inhibition of Torpedo californica AChE using ATCh as substrate assessed as dissociation rate constant preincubated for 90 mins followed by substrate addition by potentiometric titration method; set-up: species or system Tetronarce californica
[21] = test system: Mus musculus; assay type: toxicity, organism-based, ICR; details: in vivo, po, 30 mg/kg, 36 h
[22] = test system: Mus musculus; assay: Hepatotoxicity in ICR mouse assessed as serum alanine aminotransferase level dosed ig at equimolar dose of 30 mg/kg tacrine after 36 hrs by spectrophotometry analysis (reference value: 38.1 +/- 8.2 U/L); assay type: toxicity, organism-based; details: in vivo, po
[23] = test system: Mus musculus; assay: Hepatotoxicity in ICR mouse assessed as elevation in serum aspartate aminotransferase level dosed ig at equimolar dose of 30 mg/kg tacrine after 8 hrs by spectrophotometry analysis relative to control; assay type: toxicity, organism-based; details: in vivo, po
[24] = molecular target: T4, Acetylcholinesterase; assay: Competitive inhibition of Torpedo californica AChE using ATCh as substrate assessed as dissociation rate constant preincubated for 90 mins followed by substrate addition by potentiometric titration method; set-up: species or system Tetronarce californica
[25] = test system: Mus musculus; assay: Hepatotoxicity in ICR mouse assessed as serum alanine aminotransferase level dosed ig at equimolar dose of 30 mg/kg tacrine after 22 hrs by spectrophotometry analysis (reference value: 40.1 +/- 9.9 U/L); assay type: toxicity, organism-based; details: in vivo, po
[26] = molecular target: T4, Acetylcholinesterase; assay: Competitive inhibition of Torpedo californica AChE using ATCh as substrate preincubated for 90 mins followed by substrate addition by potentiometric titration method; set-up: species or system Tetronarce californica

Structure (SMILES): COc1cccc2cc(CN(CCCCCCNc3c4c(nc5ccccc35)CCC4)Cc3cc4cccc(OC)c4o3)oc12
inhibition [1]: 38.5%
IC50 [2]: 2.3 nM
IC50 [3]: 7490 nM

Structure (SMILES): COc1cccc2cc(CN(CCCCCCCNc3c4c(nc5ccccc35)CCCCC4)Cc3cc4cccc(OC)c4o3)oc12
inhibition [1]: 37.3%
IC50 [2]: 4.87 nM
IC50 [3]: 199 nM

Structure (SMILES): O=C(NCCCCCCCNc1c2c(nc3ccccc13)CCC2)c1cc2ccccc2o1
inhibition [1]: 10.2%
IC50 [2]: 30.9 nM
IC50 [3]: 48.6 nM

Structure (SMILES): c1ccc2oc(CN(CCCCCCCNc3c4c(nc5ccccc35)CCC4)Cc3cc4ccccc4o3)cc2c1
inhibition [1]: 30.7%
IC50 [2]: 12.8 nM
IC50 [3]: 222 nM

Structure (SMILES): COc1cccc2cc(CN(CCCCCCNc3c4c(nc5ccccc35)CCCCC4)Cc3cc4cccc(OC)c4o3)oc12
inhibition [1]: 25%
IC50 [2]: 2.35 nM
IC50 [3]: 1040 nM

Structure (SMILES): COc1cccc2cc(C(=O)NCCCCCCNc3c4c(nc5ccccc35)CCCCC4)oc12
inhibition [1]: 18.7%
IC50 [2]: 30 nM
IC50 [3]: 32.3 nM

Structure (SMILES): O=C(NCCCCCCCNc1c2c(nc3ccccc13)CCCC2)c1cc2ccccc2o1
Activity [4]: Toxic
inhibition [1]: 26.2%
IC50 [2]: 6.9 nM
IC50 [3]: 76.9 nM

Structure (SMILES): c1ccc2c(NCCCCCCCNc3c4c(nc5ccccc35)CCCC4)c3c(nc2c1)CCCC3
inhibition [1]: 50.1%
IC50 [5]: 8400 nM

Structure (SMILES): c1ccc2oc(CNCCCCCCCNc3c4c(nc5ccccc35)CCC4)cc2c1
inhibition [1]: 76.2%
IC50 [2]: 2.54 nM
IC50 [3]: 10.8 nM

Structure (SMILES): c1ccc2oc(CN(CCCCCCCNc3c4c(nc5ccccc35)CCCCC4)Cc3cc4ccccc4o3)cc2c1
inhibition [1]: 39.8%
IC50 [2]: 17.9 nM
IC50 [3]: 200 nM

Structure (SMILES): COc1cccc2cc(C(=O)NCCCCCCCNc3c4c(nc5ccccc35)CCC4)oc12
inhibition [1]: 19.6%
IC50 [2]: 26.1 nM
IC50 [3]: 993 nM

Structure (SMILES): COc1cccc2cc(C(=O)NCCCCCCNc3c4c(nc5ccccc35)CCC4)oc12
inhibition [1]: 32.6%
IC50 [2]: 80.6 nM
IC50 [3]: 1680 nM

Structure (SMILES): O=C(NCCCCCCNc1c2c(nc3ccccc13)CCCC2)c1cc2ccccc2o1
inhibition [1]: 13.7%
IC50 [2]: 4.68 nM
IC50 [3]: 424 nM

IC50 [6]: 18000 nM
Structure (SMILES): NC1=NC(c2ccc(F)cc2)NC(=O)N1 (stereo unspecified)

Structure (SMILES): O=C(NCCCCCCNc1c2c(nc3ccccc13)CCCCC2)c1cc2ccccc2o1
inhibition [1]: 24.2%
IC50 [2]: 10.8 nM
IC50 [3]: 308 nM

Structure (SMILES): COc1cccc2cc(CNCCCCCCNc3c4c(nc5ccccc35)CCC4)oc12
inhibition [1]: 64.1%
IC50 [2]: 1.3 nM
IC50 [3]: 63.1 nM

Structure (SMILES): COc1cccc2cc(C(=O)NCCCCCCNc3c4c(nc5ccccc35)CCCC4)oc12
inhibition [1]: 40.2%
IC50 [2]: 10.2 nM
IC50 [3]: 24.4 nM

Structure (SMILES): COc1cccc2cc(CNCCCCCCNc3c4c(nc5ccccc35)CCCC4)oc12
inhibition [1]: 52%
IC50 [2]: 0.49 nM
IC50 [3]: 15.3 nM

Structure (SMILES): c1ccc2oc(CN(CCCCCCCNc3c4c(nc5ccccc35)CCCC4)Cc3cc4ccccc4o3)cc2c1
inhibition [1]: 44.5%
IC50 [2]: 6.86 nM
IC50 [3]: 117 nM
IC50 [7]: 620 nM

Structure (SMILES): COc1cccc2cc(CNCCCCCCCNc3c4c(nc5ccccc35)CCCCC4)oc12
inhibition [1]: 31.9%
IC50 [2]: 1.23 nM
IC50 [3]: 2.56 nM

Structure (SMILES): O=C(NCCCCCCNc1c2c(nc3ccccc13)CCC2)c1cc2ccccc2o1
inhibition [1]: 18.7%
IC50 [2]: 15.7 nM
IC50 [3]: 545 nM

Structure (SMILES): COc1cccc2cc(C(=O)NCCCCCCCNc3c4c(nc5ccccc35)CCCC4)oc12
inhibition [1]: 42.5%
IC50 [2]: 7.35 nM
IC50 [3]: 44.2 nM
IC50 [7]: 430 nM

Structure (SMILES): COc1cccc2cc(C(=O)NCCCCCCCNc3c4c(nc5ccccc35)CCCCC4)oc12
inhibition [1]: 17.7%
IC50 [2]: 31.9 nM
IC50 [3]: 416 nM

Structure (SMILES): c1ccc2oc(CNCCCCCCCNc3c4c(nc5ccccc35)CCCC4)cc2c1
viability at 48 h, 30 µM [8]: 63%
fold change (FC) [9]: 1.16
Activity [10]: 45.1 U/L
inhibition [1]: 61.3%
Activity [11]: 134.5 U/L
Activity [12]: 138.3 U/L
IC50 [2]: 2.18 nM
inhibition [13]: Active
Ka [14]: 1.45 ×10⁷ /M/s
inhibition [15]: Active
Ki [16]: 1.04 nM
Ki [17]: 0.72 nM
Ki [18]: 2.1 nM
Ka [19]: 1.45 ×10⁷ /M/s
Kd [20]: 0.031 s⁻¹
Activity [21]: 114.7 U/L
Activity [22]: 42 U/L
IC50 [3]: 0.86 nM
fold change (FC) [23]: 1.22
IC50 [7]: 1350 nM
Kd [24]: 0.032 s⁻¹
Activity [25]: 48.2 U/L
Ki [26]: 2.2 nM

Structure (SMILES): c1ccc2oc(CNCCCCCCNc3c4c(nc5ccccc35)CCC4)cc2c1
inhibition [1]: 9.3%
IC50 [2]: 2.48 nM
IC50 [3]: 47 nM

Structure (SMILES): COc1cccc2cc(CN(CCCCCCNc3c4c(nc5ccccc35)CCCC4)Cc3cc4cccc(OC)c4o3)oc12
Activity [4]: Toxic
inhibition [1]: 44.6%
IC50 [2]: 0.48 nM
IC50 [3]: 260 nM
IC50 [7]: 190 nM

Structure (SMILES): O=C(NCCCCCCCNc1c2c(nc3ccccc13)CCCCC2)c1cc2ccccc2o1
inhibition [1]: 17.3%
IC50 [2]: 11.6 nM
IC50 [3]: 323 nM

Structure (SMILES): c1ccc2oc(CN(CCCCCCNc3c4c(nc5ccccc35)CCC4)Cc3cc4ccccc4o3)cc2c1
inhibition [1]: 62.2%
IC50 [2]: 8.89 nM
IC50 [3]: 2070 nM
